# In patent US20100210682A1, “Repeated Dosing of TRPV1 Antagonists” (ABBOTT LABORATORIES, priority 2009, published 2010):
# Assays:
# [1] = Plasma levels in osteoarthritic rats after acute and repeated dosing; format: in vivo, rat; settings: for Plasma Levels, Chronic: 1 hour after last dose on 12 days of BID dosing; for EC50: Rattus norvegicus, osteoarthritic rats, acute dosing
# Procedure: (§1) In the osteoarthritic pain model, animals were dosed twice-daily for 12 days using a dose that was non-efficacious following a single administration (e.g. 3 μmol/kg p.o. for Compound A). The animals were tested 1 hour after acute dosing (p.o.) and on day 12, 1 hour after oral dosing with either vehicle or the test compound.
# [2] = system: MIA-induced osteoarthritic rats; test: Osteoarthritic pain model in rats (MIA), hind limb grip force; format: in vivo, rat; settings: grip force; for ED50: Rattus norvegicus, po, MIA-induced osteoarthritic rats, p.o., acute dosing, read-out: Acute ED50 (μmol/kg; 95% Cl); for % Efficacy at Reduced Dose, Chronic (BID, 12 days) / % Efficacy at Reduced Dose, Acute: relative to naïve group; for % Efficacy at Reduced Dose, Acute: 1 hour after acute dosing; for analgesic effects following repeated dosing vs acute dosing: BID 12 days, reduced dose
# Procedure: Unilateral knee joint osteoarthritis was induced in the rats by a single intraarticular (i.a.) injection of sodium monoiodoacetate (MIA) (Sigma, St. Louis, Mo.) (3 mg in 0.05 mL sterile isotonic saline) into the joint cavity using a 26 G needle under light (2-4%) halothane (Halocarbon Laboratories, River Edge, N.J.) anesthesia [Bove S E, Calcaterra S L, Brooker R M, Huber C M, Guzman R E, Juneau P L, et al. Weight bearing as a measure of disease progression and efficacy of anti-inflammatory compounds in a model of monosodium iodoacetate-induced osteoarthritis. Osteoarthritis Cartilage 2003; 11:821-30]. Following injection, the animals were allowed to recover from the effects of anesthesia (usually 5-10 min) before returning them to their home cages.
# MIA-induced nociception can be assessed by measuring differences in weight bearing (WBD) or decrease in grip force (GF) several days to weeks following MIA injection [Bove S E, Calcaterra S L, Brooker R M, Huber C M, Guzman R E, Juneau P L, et al. Weight bearing as a measure of disease progression and efficacy of anti-inflammatory compounds in a model of monosodium iodoacetate-induced osteoarthritis. Osteoarthritis Cartilage 2003; 11:821-30; Fernihough J, Gentry C, Malcangio M, Fox A, Rediske J, Pellas T, et al. Pain related behaviour in two models of osteoarthritis in the rat knee. Pain 2004; 112:83-93].
# In addition to weight-bearing differences, grip strength was also assessed in osteoarthritic rats approximately 21 days after MIA injection. Measurements of peak hind limb grip force were conducted by recording the maximum compressive force exerted on the hind limb strain gauge setup, in a commercially available grip force measurement system (Columbus Instruments, Columbus, Ohio). During testing, each rat was gently restrained by grasping around its rib cage and then allowed to grasp the wire mesh frame (10-12 cm^2) attached to the strain gauge. The experimenter then moved the animal in a rostral-to-caudal direction until the grip was broken. Each rat was sequentially tested twice at an approximately 2 min interval to obtain a raw mean grip force […]. These raw mean grip force data were in turn converted to a maximum hind limb compressive force (CFmax) (gram force)/kg body weight for each animal. A group of age-matched naïve animals was added to each experiment and the data obtained from the different dose groups for the compound being tested were compared to the naïve group.
# Compound A was dissolved in 100% polyethylene glycol (PEG 400) for oral administration in a 2 mL/kg injection volume. Compounds B, C, and D were dissolved in 10% ethanol, 20% Tween 80 and 70% polyethylene glycol-400 for oral administration in a 2 mL/kg injection volume. All compounds were dosed orally (p.o.) 60 minutes before behavioral testing.
# as §1
# The analgesic responses were shown as % effect relative to the healthy, untreated rats (naïve group).
Compound,"Plasma Levels, Chronic ([1]; 10 μmol/kg) [at 10 μmol/kg ng/mL]",EC50 [1] [µg/mL],ED50 [2] [µmol/kg],"% Efficacy at Reduced Dose, Chronic (BID, 12 days) ([2]; 10 μmol/kg p.o. BID 12 days) [%]","% Efficacy at Reduced Dose, Acute ([2]; 10 μmol/kg p.o.) [%]",analgesic effects following repeated dosing vs acute dosing [2],"Plasma Levels, Chronic ([1]; 5 μmol/kg) [at 5 μmol/kg ng/mL]","Plasma Levels, Chronic ([1]; 15 μmol/kg) [at 15 μmol/kg ng/mL]","% Efficacy at Reduced Dose, Chronic (BID, 12 days) ([2]; 5 μmol/kg p.o. BID 12 days) [%]","% Efficacy at Reduced Dose, Acute ([2]; 5 μmol/kg p.o.) [%]","% Efficacy at Reduced Dose, Chronic (BID, 12 days) ([2]; 15 μmol/kg p.o. BID 12 days) [%]","% Efficacy at Reduced Dose, Acute ([2]; 15 μmol/kg p.o.) [%]","Plasma Levels, Chronic ([1]; 12 μmol/kg) [at 12 μmol/kg ng/mL]","% Efficacy at Reduced Dose, Chronic (BID, 12 days) ([2]; 12 μmol/kg p.o. BID 12 days) [%]","% Efficacy at Reduced Dose, Acute ([2]; 12 μmol/kg p.o.) [%]"
"CCC1(CC)C[C@@H](NC(=O)Nc2cccc3cnc(C)cc23)c2cc(F)ccc2O1 [D, N-[(4R)-2,2-diethyl-6-fluoro-3,4-dihydro-2H-chromen-4-yl]-N′-(3-methylisoquinolin-5-yl)urea]",217,1,26,62,28,significantly increased,,,,,,,,,
"Cc1nc(Nc2cccc3c2C[C@H](O)CC3)oc1-c1ccc(C(F)(F)F)cc1 [C, (2R)-8-({4-methyl-5-[4-(trifluoromethyl)phenyl]-1,3-oxazol-2-yl}amino)-1,2,3,4-tetrahydronaphthalen-2-ol]",,0.5,14,,,significantly increased,86,150,38,15,83,22,,,
"C[C@@H]1CN(c2ncccc2Cl)CC=C1C(=O)Nc1ccc(C(F)(F)F)cc1 [B, (3S)-3′-chloro-3-methyl-N-[4-(trifluoromethyl)phenyl]-3,6-dihydro-2H-1,2′-bipyridine-4-carboxamide]",,0.915,17,,,significantly increased,,,,,,,760,80,30
